Reference: patent US20240368127A1, “HSD17B13 INHIBITORS AND USES THEREOF” (FL2022-001, Inc., priority 2021, published 2024)

Target: T1, Recombinant human HSD17B13 enzyme (Homo sapiens, UniProt Q7Z5P4)
T1 sequence (Q7Z5P4 20-300): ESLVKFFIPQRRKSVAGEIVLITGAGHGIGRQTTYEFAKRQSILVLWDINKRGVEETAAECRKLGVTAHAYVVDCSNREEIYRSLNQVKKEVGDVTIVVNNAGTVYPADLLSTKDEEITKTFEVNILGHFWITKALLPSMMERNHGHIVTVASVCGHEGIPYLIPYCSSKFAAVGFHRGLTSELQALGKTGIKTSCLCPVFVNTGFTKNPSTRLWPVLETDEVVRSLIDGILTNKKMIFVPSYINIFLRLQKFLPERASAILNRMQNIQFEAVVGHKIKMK
Assay: HSD17b13 NAD(P)H-Glo biochemical assay
Conditions: 50 μM estradiol, 1 mM NAD+, 37° C. for 3 hours; read-out: HSD17β13 IC50
Method: Example B-1: HSD17b13 NAD (P) H-Glo Biochemical Assay
Recombinant human HSD17B13 enzyme. Substrate: estradiol (Sigma β-Estradiol E8875), 100 mM in DMSO. Cofactor: NAD+ Grade I free acid (Sigma 10127965001), 20 mM in H2O. Assay buffer final concentration: 20 mM Tris pH7.4 with 0.002% Tween-20 and 0.02% BSA. Assay performed in 384 well solid bottom plate (Corning 3570). Enzymatic activity detected by NAD (P) H-Glo™ Detection System (Promega G9062).
Inhibitor compounds were serially diluted in DMSO and then further diluted in assay buffer to a 10× concentration consisting of 1% DMSO.
HSD17b13 enzyme was diluted in 1× assay buffer to the desired enzyme concentration based on the specific activity of the enzyme lot. 20 μL of diluted enzyme was added to each well along with 2.5 μL of 10× inhibitor solution. Assay plate was incubated at RT for 20 minutes, and then 2.5 μL of a 10× substrate/cofactor mix was added to each well for a final concentration of 50 μM estradiol and 1 mM NAD+. Assay plate was incubated at 37° C. for 3 hours. NAD (P) H-Glo™ Detection System reagents were prepared according to manufacturer's specifications, and 25 μL was added to each well. After incubating for 1 hour at RT, luminescence was measured.

IC50	SMILES
100 to 1000 nM	Cc1nn(-c2cc(O)cc(C(F)(F)F)c2)c2ccc(N3CCN(S(C)(=O)=O)C[C@H]3Cc3ccccc3)cc12 [Compound 2.26, (R)-3-(5-(2-Benzyl-4-(methylsulfonyl)piperazin-1-yl)-3-methyl-1H-indazol-1-yl)-5-(trifluoromethyl)phenol]
≤ 100 nM	Cc1nn(-c2cc(C(F)(F)F)c(Cl)c(O)c2F)c2ccc(N3CCN(S(C)(=O)=O)C[C@H]3Cc3ccccc3)cc12 [Compound 2.27, (R)-3-(5-(2-Benzyl-4-(methylsulfonyl)piperazin-1-yl)-3-methyl-1H-indazol-1-yl)-6-chloro-2-fluoro-5-(trifluoromethyl)phenol]
≤ 100 nM	Cc1nn(-c2cc(C(F)(F)F)cc(O)c2F)c2ccc(N3CCN(S(C)(=O)=O)C[C@H]3Cc3ccccc3)cc12 [Compound 2.28, (R)-3-(5-(2-Benzyl-4-(methylsulfonyl)piperazin-1-yl)-3-methyl-1H-indazol-1-yl)-2-fluoro-5-(trifluoromethyl)phenol]
1000 to 30000 nM	Cc1c2cc(N3CCN(S(C)(=O)=O)C[C@H]3Cc3ccccc3)ccc2nn1-c1cc(O)cc(C(F)(F)F)n1 [Compound 2.30, (R)-2-(5-(2-Benzyl-4-(methylsulfonyl)piperazin-1-yl)-3-methyl-2H-indazol-2-yl)-6-(trifluoromethyl)pyridin-4-ol]
≤ 100 nM	Cc1nn(-c2cc(C(F)(F)F)c(F)c(O)c2F)c2cnc(N3CCOC[C@H]3Cc3ccccc3)nc12 [Compound 2.31, (R)-3-(5-(3-Benzylmorpholino)-3-methyl-1H-pyrazolo[4,3-d]pyrimidin-1-yl)-2,6-difluoro-5-(trifluoromethyl)phenol]
≤ 100 nM	CCN1CCN(c2ncc3c(n2)c(C)nn3-c2cc(C(F)(F)F)c(F)c(O)c2F)[C@H](Cc2ccccc2)C1 [Compound 2.32, (R)-3-(5-(2-Benzyl-4-ethylpiperazin-1-yl)-3-methyl-1H-pyrazolo[4,3-d]pyrimidin-1-yl)-2,6-difluoro-5-(trifluoromethyl)phenol]
≤ 100 nM	Cc1nn(-c2cc(C(F)(F)F)c(F)c(O)c2F)c2cc(F)c(N3CCN(S(C)(=O)=O)C[C@H]3Cc3ccccc3)nc12 [Compound 2.33, (R)-3-(5-(2-Benzyl-4-(methylsulfonyl)piperazin-1-yl)-6-fluoro-3-methyl-1H-pyrazolo[4,3-b]pyridin-1-yl)-2,6-difluoro-5-(trifluoromethyl)phenol]
≤ 100 nM	Cc1nn(-c2cc(C(F)(F)F)c(F)c(O)c2F)c2cc(Cl)c(N3CCN(S(C)(=O)=O)C[C@H]3Cc3ccccc3)nc12 [Compound 2.34, (R)-3-(5-(2-Benzyl-4-(methylsulfonyl)piperazin-1-yl)-6-chloro-3-methyl-1H-pyrazolo[4,3-b]pyridin-1-yl)-2,6-difluoro-5-(trifluoromethyl)phenol]
≤ 100 nM	Cc1nn(-c2cc(Cl)c(F)c(O)c2F)c2cnc(N3CCN(S(C)(=O)=O)C[C@H]3Cc3ccccc3)nc12 [Compound 2.35, (R)-3-(5-(2-Benzyl-4-(methylsulfonyl)piperazin-1-yl)-3-methyl-1H-pyrazolo[4,3-c]pyrimidin-1-yl)-5-chloro-2,6-difluorophenol]
≤ 100 nM	CS(=O)(=O)N1CCN(c2ncc3c(cnn3-c3cc(O)c(F)c(C(F)(F)F)c3)n2)[C@H](Cc2ccccc2)C1 [Compound 2.36, (R)-5-(5-(2-Benzyl-4-(methylsulfonyl)piperazin-1-yl)-1H-pyrazolo[4,3-d]pyrimidin-1-yl)-2-fluoro-3-(trifluoromethyl)phenol]
≤ 100 nM	Cn1nc(-c2cc(C(F)(F)F)c(F)c(O)c2F)c2cnc(N3CCN(S(C)(=O)=O)C[C@H]3Cc3ccccc3)nc21 [Compound 5, (R)-3-(6-(2-Benzyl-4-(methylsulfonyl)piperazin-1-yl)-1-methyl-1H-pyrazolo[3,4-d]pyrimidin-3-yl)-2,6-difluoro-5-(trifluoromethyl)phenol]
≤ 100 nM	Cn1nc(-c2cc(C(F)(F)F)c(F)c(O)c2F)c2cnc(N3CCOCC3CC3CC3)nc21 (centres unmarked) [Compound 5.01, 3-(6-(3-(Cyclopropylmethyl)morpholino)-1-methyl-1H-pyrazolo[3,4-d]pyrimidin-3-yl)-2,6-difluoro-5-(trifluoromethyl)phenol]
≤ 100 nM	Cn1nc(-c2cc(C(F)(F)F)c(F)c(O)c2F)c2cnc(N3CCOC(Cc4ccccc4)C3)nc21 (centres unmarked) [Compound 5.02, 3-(6-(2-Benzylmorpholino)-1-methyl-1H-pyrazolo[3,4-d]pyrimidin-3-yl)-2,6-difluoro-5-(trifluoromethyl)phenol]
≤ 100 nM	Cn1nc(-c2cc(C(F)(F)F)c(F)c(O)c2F)c2cnc(N3CCOCC3Cc3ccccc3)nc21 (centres unmarked) [Compound 5.03, 3-(6-(3-Benzylmorpholino)-1-methyl-1H-pyrazolo[3,4-d]pyrimidin-3-yl)-2,6-difluoro-5-(trifluoromethyl)phenol]
≤ 100 nM	Cn1nc(-c2cc(C(F)(F)F)c(F)c(O)c2F)c2cnc(N3CCC(O)(Cn4cccn4)CC3)nc21 [Compound 5.04, 4-((1H-Pyrazol-1-yl)methyl)-1-(3-(2,4-difluoro-3-hydroxy-5-(trifluoromethyl)phenyl)-1-methyl-1H-pyrazolo[3,4-d]pyrimidin-6-yl)piperidin-4-ol]
100 to 1000 nM	Cn1nc(-c2cc(C(F)(F)F)c(F)c(O)c2F)c2cnc(N3CCC(O)(CN4CCOCC4)CC3)nc21 [Compound 5.05, 1-(3-(2,4-Difluoro-3-hydroxy-5-(trifluoromethyl)phenyl)-1-methyl-1H-pyrazolo[3,4-d]pyrimidin-6-yl)-4-(morpholinomethyl)piperidin-4-ol]
≤ 100 nM	Cn1nc(-c2cc(C(F)(F)F)c(F)c(O)c2F)c2cnc(N3CCN(S(C)(=O)=O)C[C@@H]3Cc3ccccc3)nc21 [Compound 5.06, (S)-3-(6-(2-Benzyl-4-(methylsulfonyl)piperazin-1-yl)-1-methyl-1H-pyrazolo[3,4-d]pyrimidin-3-yl)-2,6-difluoro-5-(trifluoromethyl)phenol]
≤ 100 nM	CN1CCN(c2ncc3c(-c4cc(C(F)(F)F)c(F)c(O)c4F)nn(C)c3n2)CC1Cc1ccccc1 (centres unmarked) [Compound 5.07, 3-(6-(3-Benzyl-4-methylpiperazin-1-yl)-1-methyl-1H-pyrazolo[3,4-d]pyrimidin-3-yl)-2,6-difluoro-5-(trifluoromethyl)phenol]
≤ 100 nM	Cn1nc(-c2cc(C(F)(F)F)c(F)c(O)c2F)c2cnc(N3CCOC[C@H]3Cc3ccccc3)nc21 [Compound 5.08, (R)-3-(6-(3-Benzylmorpholino)-1-methyl-1H-pyrazolo[3,4-d]pyrimidin-3-yl)-2,6-difluoro-5-(trifluoromethyl)phenol]
≤ 100 nM	Cn1nc(-c2cc(C(F)(F)F)c(F)c(O)c2F)c2cnc(N3CCOC[C@@H]3Cc3ccccc3)nc21 [Compound 5.09, (S)-3-(6-(3-Benzylmorpholino)-1-methyl-1H-pyrazolo[3,4-d]pyrimidin-3-yl)-2,6-difluoro-5-(trifluoromethyl)phenol]
≤ 100 nM	Cn1nc(-c2cc(C(F)(F)F)c(F)c(O)c2F)c2cnc(N3CCOCC3CC3CCC3)nc21 (centres unmarked) [Compound 5.10, 3-(6-(3-(Cyclobutylmethyl)morpholino)-1-methyl-1H-pyrazolo[3,4-d]pyrimidin-3-yl)-2,6-difluoro-5-(trifluoromethyl)phenol]
≤ 100 nM	Cn1nc(-c2cc(C(F)(F)F)c(F)c(O)c2F)c2cnc(N3CCCCC3Cc3ccccn3)nc21 (centres unmarked) [Compound 5.11, 2,6-Difluoro-3-(1-methyl-6-(2-(pyridin-2-ylmethyl)piperidin-1-yl)-1H-pyrazolo[3,4-d]pyrimidin-3-yl)-5-(trifluoromethyl)phenol]
≤ 100 nM	CN1CCN(c2ncc3c(-c4cc(C(F)(F)F)c(F)c(O)c4F)nn(C)c3n2)C(Cc2ccccc2)C1 (centres unmarked) [Compound 5.12, 3-(6-(2-Benzyl-4-methylpiperazin-1-yl)-1-methyl-1H-pyrazolo[3,4-d]pyrimidin-3-yl)-2,6-difluoro-5-(trifluoromethyl)phenol]
≤ 100 nM	Cn1nc(-c2cc(C(F)(F)F)c(F)c(O)c2F)c2cnc(N3CCNC(=O)C3Cc3ccccc3)nc21 (centres unmarked) [Compound 5.13, 3-Benzyl-4-(3-(2,4-difluoro-3-hydroxy-5-(trifluoromethyl)phenyl)-1-methyl-1H-pyrazolo[3,4-d]pyrimidin-6-yl)piperazin-2-one]
≤ 100 nM	Cn1nc(-c2cc(C(F)(F)F)c(F)c(O)c2F)c2cnc(N3CCN(S(C)(=O)=O)[C@@H](Cc4ccccc4)C3)nc21 [Compound 5.14, (S)-3-(6-(3-Benzyl-4-(methylsulfonyl)piperazin-1-yl)-1-methyl-1H-pyrazolo[3,4-d]pyrimidin-3-yl)-2,6-difluoro-5-(trifluoromethyl)phenol]
≤ 100 nM	Cn1nc(-c2cc(C(F)(F)F)c(F)c(O)c2F)c2cnc(N3CCN(S(C)(=O)=O)[C@H](Cc4ccccc4)C3)nc21 [Compound 5.15, (R)-3-(6-(3-Benzyl-4-(methylsulfonyl)piperazin-1-yl)-1-methyl-1H-pyrazolo[3,4-d]pyrimidin-3-yl)-2,6-difluoro-5-(trifluoromethyl)phenol]
